The record followed here is US20160326098A1, “Pharmaceutically Active Compound for Use as Anti-inflammatory Agent” (Pax Forschung GmbH, priority 2013, published 2016).

Type in all cases: in vivo
One series concerns TNF-α. Kind of series: Plasma TNF-α level, rats with gastric injury without inflammation. The note with it: one day after 1.11 mmol/kg, vs control group H, FIG. 21. As for the experimental part:
Plasma TNF-α concentrations were determined in duplicate by means of a commercially available enzyme-linked immunosorbent assay (Quantikine ultrasensitive enzyme-linked immunosorbent assay kit for rat TNF-α; Biomedica Hungaria Kft, Budapest, Hungary). The minimum detectable level was less than 5 pg/ml, and the inter-assay and intra-assay coefficients of variation were less than 10%.
(§1) Further experiments regarding the effect of a compound of formula (I) and a pharmaceutical composition comprising a compound of formula (I), respectively, on gastric injury without inflammation were conducted on rats. 15 animals were randomly allocated into three groups. Group H (n=5) served as sham-operated controls. Samples of all animals were drawn on day 1 of the clinical tests. On day 2 the animals of group I (n=5) were force-fed acetylsalicylic acid (ASS) (1.11 mmol/kg body weight). Group K (n=5) was force-fed 1.11 mmol/kg body weight of the compound according to the invention. […] Fluorescence confocal endomicroscopy was performed to examine the microvasculature and morphologic changes of the mucosa of the distal colon, and full-thickness tissue samples and venous blood samples were taken to determine the biochemical changes in the colon and plasma. The effects were determined by way of measurement of body weight, blood gas analysation and biopsy. […]

The next series deals with xanthine oxidase enzyme. Kind of series: Xanthine oxidase enzyme activity in tissue, mice with gastric injury without inflammation. To be noted: gastric and duodenal tissue, 1.11 mmol/kg, vs control group A, FIGS. 6a/6b. As for the experimental part: The XOR activity was determined in the ultrafiltered, concentrated supernatant by fluorometric kinetic assay based on the conversion of pterine to isoxanthopterine in the presence (total XOR) or absence (xanthine oxidase activity) of the electron acceptor methylene blue.
First experiments regarding the effect of the compound of formula (I) and a pharmaceutical composition comprising the compound of formula (I) (clear aqueous solution of compound of formula (I) at pH 4.8), respectively, on gastric injury without inflammation were conducted on mice. 48 animals were randomly allocated into three groups. Group A (n=16) served as sham-operated controls. Samples of all animals were drawn on day 1 of the clinical tests. On day 2 the animals of group B (n=16) were force-fed acetylsalicylic acid (ASS) (1.11 mmol/kg body weight). Group C (n=16) was force-fed 1.11 mmol/kg body weight of the compound according to the invention. Group A only received the respective solvent (25% ethanol in water). One day after the gavage, additional samples were drawn. Fluorescence confocal endomicroscopy was performed to examine the microvasculature and morphologic changes of the mucosa of the distal colon, […] The effects were determined by way of measurement of body weight, blood gas analysation and biopsy. […]

Another series relates to nitrite/nitrate (NOx). The experiment in a line: Tissue nitrite/nitrate level, mice with gastric injury without inflammation. The note with it: gastric and duodenal tissue, 1.11 mmol/kg, vs control group A and group C, FIGS. 7a/7b. The method, then: […] This assay depends on the reduction of nitrate to nitrite, which is then converted into a colored azo dye compound that is detected spectrophotometrically at 540 nm.
First experiments regarding the effect of the compound of formula (I) and a pharmaceutical composition comprising the compound of formula (I) (clear aqueous solution of compound of formula (I) at pH 4.8), respectively, on gastric injury without inflammation were conducted on mice. 48 animals were randomly allocated into three groups. Group A (n=16) served as sham-operated controls. Samples of all animals were drawn on day 1 of the clinical tests. On day 2 the animals of group B (n=16) were force-fed acetylsalicylic acid (ASS) (1.11 mmol/kg body weight). Group C (n=16) was force-fed 1.11 mmol/kg body weight of the compound according to the invention. Group A only received the respective solvent (25% ethanol in water). One day after the gavage, additional samples were drawn. Fluorescence confocal endomicroscopy was performed to examine the microvasculature and morphologic changes of the mucosa of the distal colon, and full-thickness tissue samples and venous blood samples were taken to determine the biochemical changes in the colon and plasma. The effects were determined by way of measurement of body weight, blood gas analysation and biopsy. […]

Series [1] in a line: Body weight, mice with gastric injury without inflammation. To be noted: 1.11 mmol/kg force-fed, one day after gavage, FIG. 2. The method, then:
First experiments regarding the effect of the compound of formula (I) and a pharmaceutical composition comprising the compound of formula (I) (clear aqueous solution of compound of formula (I) at pH 4.8), respectively, on gastric injury without inflammation were conducted on mice. 48 animals were randomly allocated into three groups. Group A (n=16) served as sham-operated controls. Samples of all animals were drawn on day 1 of the clinical tests. On day 2 the animals of group B (n=16) were force-fed acetylsalicylic acid (ASS) (1.11 mmol/kg body weight). Group C (n=16) was force-fed 1.11 mmol/kg body weight of the compound according to the invention. Group A only received the respective solvent (25% ethanol in water). One day after the gavage, additional samples were drawn. Fluorescence confocal endomicroscopy was performed to examine the microvasculature and morphologic changes of the mucosa of the distal colon, and full-thickness tissue samples and venous blood samples were taken to determine the biochemical changes in the colon and plasma. The effects were determined by way of measurement of body weight, blood gas analysation and biopsy. ASS was chosen as a comparative example due to its structural similarity and its known activity as anti-inflammatory agent.

Series [2] is described as follows: Body weight, rats with TNBS-induced colitis. To be noted: two days after enema, one day after 1.11 mmol/kg, FIG. 27. As for the experimental part: Colonic inflammation was induced by intracolonic administration of TNBS (2,4,6-trinitrobenzenesulfonic acid) (40 mg/kg in 0.25 ml of 25% aqueous ethanol) through an 8-cm-long soft plastic catheter under transient diethylether anesthesia. In the sham-operated groups, only the vehicle for TNBS was administered. The animals were deprived of food, but not water, for 12 h before the enemas.
The above-described clinical studies were repeated with animals having colitis which was induced as described above. […] Two days after the enema the effects of the treatment were determined by measurement of body weight, blood gas analysis and biopsy. […] Surgery was performed to allow registration of the hemodynamic parameters at 1 h intervals for 6 h (cardiac output [CO] data were measured only at the end of the experiments). […] In addition, fluorescence confocal endomicroscopy was performed to examine the microvasculature and morphologic changes of the mucosa of the distal colon, and full-thickness tissue samples and venous blood samples were taken to determine the biochemical changes in the colon and plasma.

Series [3] relates to High mobility group box protein 1 (HMGB-1). The experiment in a line: Plasma high mobility group protein B1, rats with gastric injury without inflammation. To be noted: 1.11 mmol/kg, day 3, vs control group H, FIG. 22. The method, then: High mobility group box protein 1 (HMGB-1) measurements in plasma:
Blood samples were drawn into chilled polypropylene tubes containing EDTA (1 mg/ml) and were centrifuged at 1200 g for 10 min at 4° C. The plasma samples were then collected and stored at −70° C. until assay. Plasma concentration of HMGB-1 was measured by a commercially available HMGB-1 ELISA kit (Shino-Test Corporation, Kanagawa, Japan).
as §1

Consider `CC(=O)Oc1ccccc1C(=O)O` [ASS, acetylsalicylic acid, reference compound], for which, in the series on TNF-α, the “plasma TNF-α level” value is “increase in the plasma TNF-α level”. The “activity of xanthine oxidase enzyme” value in the series on xanthine oxidase enzyme was “increased activity”. The nitrite/nitrate level result in the series on nitrite/nitrate (NOx) is recorded as “significant difference in the nitrite/nitrate level”. Moreover, the “change in body weight” value in series [1] was “severe loss of body weight”. Besides, the “loss of body weight” value in series [2] is on record as “severe loss in body weight”. In series [3], the “concentration of the high mobility group protein B1 in the plasma” value was “increased”.

For the compound `CC(=O)Oc1ccccc1C(=O)NC(CO)(CO)CO` [compound according to the invention], the “plasma TNF-α level” value in the series with TNF-α is recorded as “almost no change”. Further, the “activity of xanthine oxidase enzyme” value in the series on xanthine oxidase enzyme is on record as “no such increase”. Moreover, in series [1], the “change in body weight” value is “only showed a minor loss in body weight”. In addition, the “loss of body weight” value in series [2] is given as “No weight loss”. The “concentration of the high mobility group protein B1 in the plasma” value in series [3] is “comparable with the concentration in the plasma of the animals in the control group H”.
